Some test systems named below: ACHN; NCI/ADR-RES; SF-539; HT-29; SW-620; OVCAR-5; SNB-75; M14; OVCAR-3; MOLT-4; MDA-MB-435; MDA-MB-231; SK-MEL-5; A549; U-251; SK-MEL-2; HCC 2998; KM12; NCI-H226; RXF 393.
Common to all, as to assay: growth of human tumour cells (NCI), 48 h

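1) Cells in 96-well plates. 2) Compound, 48 h, 5 concentrations. 3) Linear interpolation between surrounding doses. 4) Unreached endpoint = highest concentration. The concentration for 50% growth inhibition is given as GI50.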 Active and inactive are the calls of the source. No stated cut-off is given here; in the data, active = GI50 up to about 1.1 µM and inactive = higher.

This is an account of results in ChEMBL document CHEMBL1201862, “PubChem BioAssay data set” (2004).

On to `Nc1ccccc1C(=O)NNC(=O)c1ccccc1N`, for which the GI50 in the experiment with ACHN, in the experiment on NCI/ADR-RES, in the experiment with SF-539, in the experiment with HT-29, in the experiment on SW-620 and in the experiment with OVCAR-5 was > 100 µM (inactive) throughout. The GI50 with SNB-75 was 35.5 µM (inactive); in the experiment on M14 it was > 100 µM (inactive); in the experiment on OVCAR-3 it was > 100 µM (inactive); in the experiment with MOLT-4, > 100 µM (inactive); in the experiment with MDA-MB-435, > 100 µM (inactive); in the experiment with MDA-MB-231 it was > 100 µM (inactive). The GI50 in the experiment on SK-MEL-5, in the experiment with A549, in the experiment on U-251, in the experiment with SK-MEL-2, with HCC 2998 and in the experiment with KM12 was > 100 µM (inactive) each time. Also, the GI50 in the experiment on NCI-H226 and in the experiment with RXF 393 was > 100 µM (inactive) each time.
With `COC(=O)c1nsc(OC)c1Cl`, the GI50 in the experiment with NCI/ADR-RES, in the experiment on SF-539, with HT-29, with SW-620, in the experiment on OVCAR-5 and in the experiment on SNB-75 was > 100 µM (inactive) in each case. Further, the GI50 with M14, in the experiment on OVCAR-3, in the experiment on MOLT-4, in the experiment on MDA-MB-435, in the experiment with MDA-MB-231 and in the experiment with SK-MEL-5 was > 100 µM (inactive) each time. In addition, the GI50 in the experiment with A549, in the experiment with U-251, with HCC 2998, with KM12, in the experiment on NCI-H226 and in the experiment with RXF 393 was > 100 µM (inactive) throughout.
In the case of `CCCCCCCC/C=C\CCCCCCC/C=C1\C[C@](/C=C/C(=O)OC)(CO)OC1=O`, the GI50 with ACHN is 2.19 µM (inactive); in the experiment on NCI/ADR-RES, 3.47 µM (inactive); in the experiment with SF-539, 1.78 µM (inactive); in the experiment with HT-29 it was 5.08 µM (inactive); with SW-620, 1.78 µM (inactive); with OVCAR-5, 5.98 µM (inactive). Moreover, the GI50 is 1.92 µM (inactive) in the experiment with SNB-75; 1.62 µM (inactive) in the experiment with M14; 5.32 µM (inactive) in the experiment with OVCAR-3; 0.611 µM (active) with MOLT-4; 1.25 µM (inactive) in the experiment on MDA-MB-435; 1.94 µM (inactive) in the experiment with MDA-MB-231. For the same molecule, the GI50 is 3.31 µM (inactive) with SK-MEL-5; 4.3 µM (inactive) in the experiment with A549; 1.85 µM (inactive) with U-251; 8.41 µM (inactive) in the experiment with SK-MEL-2; 5.36 µM (inactive) in the experiment on HCC 2998; 3.37 µM (inactive) in the experiment with KM12. The GI50 with NCI-H226 was 2.61 µM (inactive); in the experiment on RXF 393, 5.28 µM (inactive).
For the molecule `Cc1nc(-[n+]2nc(-c3ccncc3)nn2-c2ccccc2)sc1C`, the GI50 is 4.8 µM (inactive) in the experiment on ACHN; 84.5 µM (inactive) in the experiment on NCI/ADR-RES; 8.53 µM (inactive) in the experiment on SF-539; 55.1 µM (inactive) in the experiment with HT-29; 20.2 µM (inactive) with SW-620; 44.6 µM (inactive) with OVCAR-5. In addition, the GI50 with SNB-75 was 42.9 µM (inactive); with M14, 49.3 µM (inactive); with MOLT-4 it was 4.72 µM (inactive); with MDA-MB-435, 23.4 µM (inactive); in the experiment with MDA-MB-231, 32.1 µM (inactive); in the experiment with SK-MEL-5 it was 29.4 µM (inactive). The GI50 in the experiment with A549 is 30.3 µM (inactive); in the experiment with U-251, 29.4 µM (inactive); in the experiment on SK-MEL-2 it was > 100 µM (inactive); in the experiment with HCC 2998, > 100 µM (inactive); in the experiment with KM12, 36.9 µM (inactive); in the experiment on NCI-H226, 32.1 µM (inactive). In the experiment on RXF 393, the GI50 was 18.7 µM (inactive).
For `CCc1cccc(CC)c1NC(=S)NC(=O)c1ccc(Br)cc1`, the GI50 is 32.4 µM (inactive) in the experiment with ACHN; 29.7 µM (inactive) in the experiment on NCI/ADR-RES; 33.1 µM (inactive) in the experiment on SF-539; 36.9 µM (inactive) with HT-29; 36.5 µM (inactive) in the experiment on SW-620; > 50.4 µM (inactive) in the experiment with OVCAR-5. Further, the GI50 in the experiment with SNB-75 is 26.4 µM (inactive); in the experiment on M14, 26.8 µM (inactive); in the experiment with OVCAR-3 it was 36.3 µM (inactive); in the experiment with MOLT-4, 18.8 µM (inactive); with MDA-MB-435, 23 µM (inactive); in the experiment on MDA-MB-231, 29 µM (inactive). The GI50 is 26.4 µM (inactive) with SK-MEL-5; 32.8 µM (inactive) in the experiment with A549; 40.1 µM (inactive) in the experiment with U-251; 18.6 µM (inactive) in the experiment with SK-MEL-2; 33.2 µM (inactive) in the experiment with HCC 2998; 33.8 µM (inactive) in the experiment on KM12. The results for the GI50 with NCI-H226 and in the experiment on RXF 393 were 21.5 µM (inactive) and 19.1 µM (inactive), respectively.
On to `CCOC(=O)c1ccc(NC(NC(=O)CC)(C(F)(F)F)C(F)(F)F)cc1`, for which the GI50 was 55 µM (inactive) in the experiment on ACHN; > 100 µM (inactive) in the experiment on NCI/ADR-RES; > 100 µM (inactive) in the experiment with SF-539; > 100 µM (inactive) with HT-29; > 100 µM (inactive) in the experiment with SW-620; > 100 µM (inactive) in the experiment with OVCAR-5. Further, the GI50 is > 100 µM (inactive) with SNB-75; > 100 µM (inactive) with M14; > 100 µM (inactive) with OVCAR-3; 55.5 µM (inactive) with MOLT-4; > 100 µM (inactive) with MDA-MB-435; > 100 µM (inactive) with MDA-MB-231. In addition, the GI50 is > 100 µM (inactive) with SK-MEL-5; > 100 µM (inactive) in the experiment with A549; > 100 µM (inactive) in the experiment on U-251; > 100 µM (inactive) in the experiment on SK-MEL-2; > 100 µM (inactive) in the experiment on HCC 2998; 59.6 µM (inactive) with KM12. The GI50 in the experiment with NCI-H226 and in the experiment on RXF 393 was > 100 µM (inactive) in each case.
As for `CC(=O)CC(O)(C(F)(F)Cl)C(F)(Cl)Cl` (centres undefined), the GI50 in the experiment with ACHN, in the experiment on NCI/ADR-RES, in the experiment on SF-539, in the experiment on HT-29, in the experiment on SW-620 and with SNB-75 was > 10 µM (inactive) throughout. In addition, the GI50 in the experiment on M14, in the experiment with OVCAR-3, in the experiment on MDA-MB-435, in the experiment with MDA-MB-231, in the experiment with SK-MEL-5 and in the experiment with A549 was > 10 µM (inactive) in each case. In addition, the GI50 in the experiment with U-251, in the experiment with SK-MEL-2, in the experiment with HCC 2998, in the experiment on KM12, in the experiment on NCI-H226 and in the experiment on RXF 393 was > 10 µM (inactive) throughout.
For the molecule `Oc1ccc(-c2nn3c(CCCCCCCCc4nnc5sc(-c6ccc(O)cc6)nn45)nnc3s2)cc1`, the GI50 with ACHN, in the experiment with NCI/ADR-RES, in the experiment with SF-539, in the experiment with HT-29, with SW-620 and in the experiment on OVCAR-5 was > 100 µM (inactive) each time. Also, the GI50 with SNB-75 was > 100 µM (inactive); in the experiment with M14, > 100 µM (inactive); in the experiment with OVCAR-3, > 100 µM (inactive); in the experiment with MOLT-4, 95.7 µM (inactive); in the experiment with MDA-MB-435, > 100 µM (inactive); with MDA-MB-231, > 100 µM (inactive). Further, the GI50 in the experiment with SK-MEL-5, with A549, in the experiment on U-251, in the experiment on SK-MEL-2, in the experiment with HCC 2998 and in the experiment with KM12 was > 100 µM (inactive) in each case. Further, the GI50 in the experiment on NCI-H226 and in the experiment with RXF 393 was > 100 µM (inactive) in each case.
Take `CC(CN(C)C)C(O)(c1ccccc1)c1ccccc1` (centres undefined): the GI50 with ACHN, in the experiment with NCI/ADR-RES, with SF-539, in the experiment with HT-29, with SW-620 and in the experiment with OVCAR-5 was > 100 µM (inactive) each time. Also, the GI50 in the experiment on SNB-75, with M14, in the experiment with OVCAR-3, with MOLT-4, in the experiment with MDA-MB-435 and in the experiment with MDA-MB-231 was > 100 µM (inactive) each time. For the same molecule, the GI50 with SK-MEL-5 was > 100 µM (inactive); in the experiment with A549, > 100 µM (inactive); with U-251 it was > 100 µM (inactive); with SK-MEL-2 it was > 100 µM (inactive); in the experiment with HCC 2998 it was 27.2 µM (inactive); in the experiment on KM12, > 100 µM (inactive). Besides, the GI50 with NCI-H226 and in the experiment with RXF 393 was > 100 µM (inactive) throughout.
Consider `COc1ccc(-c2cc(=O)c3c(OC)c(OC)c(OC)c(OC)c3o2)cc1` [TANGERETIN], for which the GI50 was 57 µM (inactive) in the experiment with ACHN; 23.7 µM (inactive) in the experiment with NCI/ADR-RES; > 100 µM (inactive) with SF-539; 35.2 µM (inactive) in the experiment with HT-29; 67.8 µM (inactive) in the experiment with SW-620; > 100 µM (inactive) in the experiment with OVCAR-5. In addition, the GI50 in the experiment on SNB-75 is 46.8 µM (inactive); with M14 it was 76.9 µM (inactive); in the experiment with OVCAR-3 it was 42.4 µM (inactive); in the experiment on MOLT-4, 64.6 µM (inactive); with MDA-MB-435, 50.5 µM (inactive); in the experiment with MDA-MB-231 it was 28.8 µM (inactive). Further, the GI50 in the experiment on SK-MEL-5 was 27.7 µM (inactive); in the experiment with A549, 51.6 µM (inactive); in the experiment with U-251 it was 91 µM (inactive); in the experiment with SK-MEL-2, 90.6 µM (inactive); in the experiment with HCC 2998 it was 91 µM (inactive); in the experiment with NCI-H226, 64.7 µM (inactive). Also, the GI50 in the experiment on RXF 393 was 45.4 µM (inactive).
